Earlier results in patent US10561746B2, “Gel formulations for guiding radiotherapy” (DANMARKS TEKNISKE UNIVERSITET, priority 2013, dated 2020).

concentration at which self-assembled hydrogels form (in the presence of mM concentrations of NaCl, KCl, and CaCl2): > 10000 µg/mL
solubility in pure H2O (pure H2O): highly soluble
Substance: H-(FEFEFKFK)2-OH [FEK16]
